According to patent publication US9656971B2, “COMT inhibitors” (Hoffmann-La Roche Inc., priority 2012, dated 2017):
Counter-ions that a name gives are not always drawn. Like-named read-outs stand apart in the source and are kept apart here.

Target: T1, Rec. human COMT (Homo sapiens, UniProt P21964)
T1 sequence (P21964 1-271): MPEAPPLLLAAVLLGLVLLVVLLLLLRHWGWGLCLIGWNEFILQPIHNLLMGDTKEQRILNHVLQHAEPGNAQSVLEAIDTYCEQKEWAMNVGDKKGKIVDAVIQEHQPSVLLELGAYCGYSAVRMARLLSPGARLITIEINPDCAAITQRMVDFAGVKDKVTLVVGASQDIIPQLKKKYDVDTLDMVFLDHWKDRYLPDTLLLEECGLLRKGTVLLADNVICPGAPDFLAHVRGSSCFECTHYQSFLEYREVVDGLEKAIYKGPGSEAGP
Assay: COMT-Fluorescence Assay
Type: biochemical
Details: rec. human COMT 25 nM, 4-Nitrocatechol-Alexa488 200 nM, SAM 500 nM
Protocol: This intramolecular interaction is disturbed if the 4-Nitrocatechol is methylated. […] This increase of fluorescence intensity can be followed in a kinetic measurement. The slope in the linear range of the kinetic is calculated. An inhibitor compound decreases the slope.
Signal [rfu/min]=(rfu(end-point)−rfu(startpoint))/incubation_time_#2

[1] = COMT-fluorescence assay, read-out: IC50

Structure (SMILES)	IC50 [1]	IC50 (IC50, COMT-fluorescence assay)
Cc1ccc(-c2c(-c3ccc(F)cc3)c(Br)c(O)c3nc[nH]c(=O)c23)cc1 [Example 51, 7-bromo-6-(4-fluorophenyl)-8-hydroxy-5-p-tolylquinazolin-4(3H)-one]	260 nM	–
CN1CC=C(c2c(-c3ccc(F)cc3)cc(O)c3nc[nH]c(=O)c23)CC1 [Example 61, 6-(4-Fluorophenyl)-8-hydroxy-5-(1-methyl-1,2,3,6-tetrahydropyridin-4-yl)quinazolin-4(3H)-one]	–	130 nM
Cc1ccc(C(O)c2cc(O)c3nc[nH]c(=O)c3c2)cc1 (stereo not drawn) [Example 65, 8-Hydroxy-6-(hydroxy(p-tolyl)methyl)quinazolin-4(3H)-one]	4830 nM	–
Cc1ccc(C(=O)c2cc(O)c3nc[nH]c(=O)c3c2)cc1 [Example 66, 8-Hydroxy-6-(4-methylbenzoyl)quinazolin-4(3H)-one]	100 nM	–
O=c1[nH]cnc2c(O)cc(C(O)c3ccccc3)cc12 (stereo not drawn) [Example 67, 8-Hydroxy-6-(hydroxy(phenyl)methyl)quinazolin-4(3H)-one]	7450 nM	–
O=C(c1ccccc1)c1cc(O)c2nc[nH]c(=O)c2c1 [Example 68, 6-Benzoyl-8-hydroxy-3H-quinazolin-4-one]	60 nM	–
O=c1[nH]cnc2c(O)cc(C3CCOCC3)cc12 [Example 69, 8-Hydroxy-6-(tetrahydro-2H-pyran-4-yl)quinazolin-4(3H)-one 2,2,2-trifluoroacetate]	1040 nM	–
COCc1cccc(-c2cc(O)c3nc[nH]c(=O)c3c2)c1 [Example 71, 8-Hydroxy-6-(3-(methoxymethyl)phenyl)quinazolin-4(3H)-one]	–	20 nM
O=C(c1cccnc1)c1cc(O)c2nc[nH]c(=O)c2c1 [Example 74, 8-Hydroxy-6-nicotinoylquinazolin-4(3H)-one]	250 nM	–
Cn1cnc(-c2cc(O)c3nc[nH]c(=O)c3c2)c1 [Example 75, 8-Hydroxy-6-(1-methyl-1H-imidazol-4-yl)quinazolin-4(3H)-one]	510 nM	–
Cc1onc(-c2ccccc2)c1-c1cc(O)c2nc[nH]c(=O)c2c1 [Example 76, 8-Hydroxy-6-(5-methyl-3-phenylisoxazol-4-yl)quinazolin-4(3H)-one]	4600 nM	–
Cc1noc(C)c1-c1cc(O)c2nc[nH]c(=O)c2c1 [Example 78, 6-(3,5-Dimethylisoxazol-4-yl)-8-hydroxyquinazolin-4(3H)-one]	320 nM	–
Cn1cncc1-c1cc(O)c2nc[nH]c(=O)c2c1 [Example 79, 8-Hydroxy-6-(1-methyl-1H-imidazol-5-yl)quinazolin-4(3H)-one]	150 nM	–
CCOC(=O)c1[nH]c(-c2cc(O)c3nc[nH]c(=O)c3c2)nc1C [Example 80, Ethyl 2-(8-hydroxy-4-oxo-3,4-dihydroquinazolin-6-yl)-4-methyl-1H-imidazole-5-carboxylate]	90 nM	–
Cc1nnc(-c2cc(O)c3nc[nH]c(=O)c3c2)s1 [Example 83, 8-Hydroxy-6-(5-methyl-1,3,4-thiadiazol-2-yl)quinazolin-4(3H)-one]	60 nM	–
COC(=O)c1csc(-c2cc(O)c3nc[nH]c(=O)c3c2)n1 [Example 84, Methyl 2-(8-hydroxy-4-oxo-3,4-dihydroquinazolin-6-yl)thiazole-4-carboxylate]	110 nM	–
Cc1nc(-c2cc(O)c3nc[nH]c(=O)c3c2)cs1 [Example 85, 8-Hydroxy-6-(2-methylthiazol-4-yl)quinazolin-4(3H)-one]	170 nM	–
Cc1ncc(-c2cc(O)c3nc[nH]c(=O)c3c2)n1C [Example 87, 6-(1,2-Dimethyl-1H-imidazol-5-yl)-8-hydroxyquinazolin-4(3H)-one]	230 nM	–
COC(=O)c1nn(C)cc1-c1cc(O)c2nc[nH]c(=O)c2c1 [Example 88, Methyl 4-(8-hydroxy-4-oxo-3,4-dihydroquinazolin-6-yl)-1-methyl-1H-pyrazole-3-carboxylate]	120 nM	–
O=c1[nH]cnc2c(O)cc(-c3cscn3)cc12 [Example 91, 8-Hydroxy-6-(thiazol-4-yl)quinazolin-4(3H)-one]	100 nM	–
O=c1[nH]cnc2c(O)cc(-c3cnsc3)cc12 [Example 92, 8-Hydroxy-6-(isothiazol-4-yl)quinazolin-4(3H)-one]	60 nM	–
O=C(c1ccncc1)c1cc(O)c2nc[nH]c(=O)c2c1 [Example 93, 8-Hydroxy-6-isonicotinoylquinazolin-4(3H)-one]	160 nM	–
Cc1ccc(C(=O)c2cc(O)c3nc[nH]c(=O)c3c2)s1 [Example 94, 8-Hydroxy-6-(5-methylthiophene-2-carbonyl)quinazolin-4(3H)-one]	90 nM	–

Further lines, with some results ahead:

IC50 [1]	Structure (SMILES)	IC50 (IC50, COMT-fluorescence assay)
10 nM	Cc1ccc(-c2c(-c3ccc(F)cc3)cc(O)c3nc[nH]c(=O)c23)cc1 [Example 50, 6-(4-Fluorophenyl)-8-hydroxy-5-p-tolylquinazolin-4(3H)-one]	–
10 nM	CS(=O)(=O)c1cccc(-c2c(-c3ccc(F)cc3)cc(O)c3nc[nH]c(=O)c23)c1 [Example 52, 6-(4-Fluorophenyl)-8-hydroxy-5-(3-(methylsulfonyl)phenyl)quinazolin-4(3H)-one]	–
20 nM	O=c1[nH]cnc2c(O)cc(-c3ccc(F)cc3)c(-c3cccc(C(F)(F)F)c3)c12 [Example 53, 6-(4-Fluorophenyl)-8-hydroxy-5-(3-(trifluoromethyl)phenyl)quinazolin-4(3H)-one]	–
60 nM	N#Cc1c(-c2ccc(F)cc2)cc(O)c2nc[nH]c(=O)c12 [Example 54, 6-(4-Fluorophenyl)-8-hydroxy-4-oxo-3,4-dihydroquinazoline-5-carbonitrile]	–
10 nM	CCN(CC)C(=O)c1ccc(-c2c(-c3ccc(F)cc3)cc(O)c3nc[nH]c(=O)c23)cc1 [Example 55, N,N-Diethyl-4-(6-(4-fluorophenyl)-8-hydroxy-4-oxo-3,4-dihydroquinazolin-5-yl)benzamide]	–
10 nM	O=c1[nH]cnc2c(O)cc(-c3ccc(F)cc3)c(-c3ccncc3)c12 [Example 56, 6-(4-Fluorophenyl)-8-hydroxy-5-(pyridin-4-yl)quinazolin-4(3H)-one]	–
10 nM	CS(=O)(=O)c1ccc(-c2c(-c3ccc(F)cc3)cc(O)c3nc[nH]c(=O)c23)cc1 [Example 57, 6-(4-Fluorophenyl)-8-hydroxy-5-(4-(methylsulfonyl)phenyl)quinazolin-4(3H)-one]	–
10 nM	Cc1cc(-c2c(-c3ccc(F)cc3)cc(O)c3nc[nH]c(=O)c23)ccn1 [Example 58, 6-(4-Fluorophenyl)-8-hydroxy-5-(2-methylpyridin-4-yl)quinazolin-4(3H)-one]	–
40 nM	O=c1[nH]cnc2c(O)cc(-c3ccc(F)cc3)c(-c3ccnc(N4CCOCC4)c3)c12 [Example 59, 6-(4-Fluorophenyl)-8-hydroxy-5-(2-morpholinopyridin-4-yl)quinazolin-4(3H)-one]	–
20 nM	CN(C)c1ccc(-c2cc(O)c3nc[nH]c(=O)c3c2)cn1 [Example 60, 6-(6-(Dimethylamino)pyridin-3-yl)-8-hydroxyquinazolin-4(3H)-one 1:1 salt with trifluoroacetate]	–
10 nM	O=c1[nH]cnc2c(O)cc(-c3cccc(N4CCOCC4)n3)cc12 [Example 62, 8-Hydroxy-6-(6-morpholinopyridin-2-yl)quinazolin-4(3H)-one]	–
40 nM	O=c1[nH]cnc2c(O)cc(-c3cccc(N4CCCC4)n3)cc12 [Example 63, 8-Hydroxy-6-(6-(pyrrolidin-1-yl)pyridin-2-yl)quinazolin-4(3H)-one]	–
10 nM	N#Cc1ccc(-c2c(-c3ccc(F)cc3)cc(O)c3nc[nH]c(=O)c23)cc1 [Example 64, 4-[6-(4-Fluoro-phenyl)-8-hydroxy-4-oxo-3,4-dihydro-quinazolin-5-yl]-benzonitrile]	–
20 nM	O=c1[nH]cnc2c(O)cc(C3=CCOCC3)cc12 [Example 70, 6-(3,6-Dihydro-2H-pyran-4-yl)-8-hydroxyquinazolin-4(3H)-one]	–
30 nM	Cc1cnc(-c2cc(O)c3nc[nH]c(=O)c3c2)s1 [Example 72, 8-Hydroxy-6-(5-methylthiazol-2-yl)quinazolin-4(3H)-one]	–
40 nM	Cn1ccnc1-c1cc(O)c2nc[nH]c(=O)c2c1 [Example 73, 8-Hydroxy-6-(1-methyl-1H-imidazol-2-yl)quinazolin-4(3H)-one]	–
50 nM	CN(C)S(=O)(=O)n1cnc(-c2cc(O)c3nc[nH]c(=O)c3c2)c1 [Example 77, 4-(8-Hydroxy-4-oxo-3,4-dihydroquinazolin-6-yl)-N,N-dimethyl-1H-imidazole-1-sulfonamide]	–
10 nM	COC(=O)c1cc(C)c(-c2cc(O)c3nc[nH]c(=O)c3c2)s1 [Example 81, Methyl 5-(8-hydroxy-4-oxo-3,4-dihydroquinazolin-6-yl)-4-methylthiophene-2-carboxylate]	–
40 nM	Cn1cc(-c2cc(O)c3nc[nH]c(=O)c3c2)c(C(F)(F)F)n1 [Example 82, 8-Hydroxy-6-(1-methyl-3-(trifluoromethyl)-1H-pyrazol-4-yl)quinazolin-4(3H)-one]	–
30 nM	O=c1[nH]cnc2c(O)cc(-c3cnc4ccccn34)cc12 [Example 86, 8-Hydroxy-6-(imidazo[1,2-a]pyridin-3-yl)quinazolin-4(3H)-one]	–
20 nM	O=c1[nH]cnc2c(O)cc(-c3ccc(-c4ccccn4)s3)cc12 [Example 89, 8-Hydroxy-6-(5-(pyridin-2-yl)thiophen-2-yl)quinazolin-4(3H)-one]	–
20 nM	O=c1[nH]cnc2c(O)cc(-c3cncs3)cc12 [Example 90, 8-Hydroxy-6-(thiazol-5-yl)quinazolin-4(3H)-one]	–
